# Where two headings read alike, the source gives them in different places. Marks after values point to notes of the source that are not given here.
# Assays:
# [1] = test system: primary human hepatocytes; settings: cited from earlier work
# HepaRG cells [2] = test system: HepaRG cells
# Experimental: (§1) The SCGE experiments were conducted as described in an international guideline (Tice et al. [2000]). Reagents for the assays (lysis solution and alkaline electrophoresis buffer) and agarose-coated slides were prepared according to Collins and Dusinska ([2009]).
# (§2) Briefly, cells were sub-cultured in 1.0 ml medium in 24–well tissue-culture plates (Sarstedt Inc., Newton, NC, USA). After 24 h, the media were changed and the cells exposed to different concentrations of the test compounds or to the solvent controls (PBS or DMSO). […] To terminate the treatment, the cells were washed twice with PBS (1.0 ml), trypsinized (100 µl T/E per well, 4 min) and then resuspended in 400 µl culture medium containing FBS. Subsequently, the suspensions were transferred to Eppendorf tubes and centrifuged (200g, 5 min). Cell pellets were resuspended in cold PBS.
# (§3) In all experiments, acute toxic effects were determined with a CASY® Cell Counter and Analyzer System (Schärfe-System GmbH, Reutlingen, Germany) (Lindl et al. [2005]). SCGE assays were only performed when the viability of the cultures was ≥ 70% (Koppen et al. [2017]). Per experimental point, two cultures were set up in parallel and from each one slide with two separate gels (30,000 cells/gel) was prepared. After unwinding (40 min, pH > 13) and electrophoresis (30 min, 0.75 V/cm, ~ 300 mA, 4 °C, pH > 13), 50 cells were evaluated per gel (200 cells per experimental point). As an endpoint, we determined the tail intensities (“% DNA in tail”) with a computer-aided system Comet Assay IV (Perceptive Instruments, Bury St Edmunds, UK), which is at present the most widely used parameter (Collins et al. [2008]; Moller [2006]). For each gel, the median of the tail intensity was calculated.
# WRL68 cells = test system: WRL68 cells
# Experimental: as §1, §2, §3
# JHH6 cells = test system: JHH6 cells
# Experimental: as §1, §2, §3
# HuH7 cells = test system: HuH7 cells
# Experimental: as §1, §2, §3
# [3] = test system: human derived liver cell lines
# Experimental: as §1, §2, §3
# Hep3B cells = test system: Hep3B cells
# Experimental: as §1, §2, §3
# HuH6 cells = test system: HuH6 cells
# Experimental: as §1, §2, §3
# SNU-449 cells = test system: SNU-449 cells
# Experimental: as §1, §2, §3
# SK-Hep1 cells = test system: SK-Hep1 cells
# Experimental: as §1, §2, §3
# HCC 1.2 cells = test system: HCC 1.2 cells
# Experimental: as §1, §2, §3
# PLC/PRF cells = test system: PLC/PRF cells
# Experimental: as §1, §2, §3
# SNU-398 cells = test system: SNU-398 cells
# Experimental: as §1, §2, §3
# HepG2 cells = test system: HepG2 cells
# Experimental: as §1, §2, §3
# p53 protein = assay: Induction of p53 protein expression (Western Blot) in liver cell lines; type: cell-based, human; design: key to P53 protein expression (Western Blot) Induced: No expression is indicated with −; background expression with +; induced expression with ++; highly induced expression with +++; settings: for P53 protein expression (Western Blot) Induced: 30 µM B(a)P for 24 h
# Experimental: (§4) The expression of the p53 gene in the different cell lines was analyzed using real-time quantitative PCR (RT-qPCR) according to the description of Straser et al. ([2013]). The protein was quantified by Western blotting as described by Pezdirc et al. ([2013]).
# p53 gene = assay: Induction of p53 gene expression (RT-qPCR) in liver cell lines; type: cell-based, human; settings: 30 µM B(a)P for 24 h
# Experimental: as §4
# HepaRG cells [4] = settings: ref Le Hegarat et al. [2014]; cited from earlier work
compound,measurement,setting,value
N-nitrosodimethylamine [NDMA],Sensitivity of primary hepatocytes compared with HepG2,[1],substantially stronger effects
same,% DNA in tail,HepaRG cells [2],0.96 ± 0.59 1.47 ± 0.10 1.41 ± 1.04 5.09 ± 0.52 %
same,Result of SCGE experiments (in words),HepaRG cells [2],detected
same,% DNA in tail,WRL68 cells,0.43 ± 0.22 1.03 ± 0.74 0.93 ± 0.05 0.12 ± 0.01%
same,% DNA in tail,JHH6 cells,1.17 ± 1.11 1.33 ± 0.66 1.69 ± 0.81 1.16 ± 0.53%
same,% DNA in tail,HuH7 cells,0.61 ± 0.35 0.69 ± 0.48 0.77 ± 0.60 3.01 ± 2.11 %
same,Result of SCGE experiments (in words),HuH7 cells,induction of DNA damage was found
same,Doses required to cause significant effects in SCGE assays,[3],≥ 100 mM
same,Number of the twelve lines sensitive towards the compound,[3],five
same,% DNA in tail,Hep3B cells,0.57 ± 0.21 0.62 ± 0.45 0.92 ± 0.45 0.61 ± 0.47%
same,% DNA in tail,HuH6 cells,1.73 ± 2.62 2.91 ± 1.45 6.86 ± 1.74* 13.1 ± 4.41 %
same,% DNA in tail,SNU-449 cells,0.23 ± 0.16 0.52 ± 0.24 0.54 ± 0.11 0.15 ± 0.03%
same,% DNA in tail,SK-Hep1 cells,0.46 ± 0.16 0.70 ± 0.42 0.59 ± 0.24 0.37 ± 0.34%
same,% DNA in tail,HCC 1.2 cells,1.77 ± 1.64 16.3 ± 4.52* 17.1 ± 3.64* 8.87 ± 0.30 %
same,% DNA in tail,PLC/PRF cells,1.15 ± 1.25 1.04 ± 0.33 1.65 ± 1.55 1.09 ± 0.33%
same,% DNA in tail,SNU-398 cells,0.40 ± 0.14 0.65 ± 0.50 0.83 ± 0.53 0.28 ± 0.11%
same,% DNA in tail,HepG2 cells,0.35 ± 0.21 0.83 ± 0.26 1.12 ± 0.72 1.55 ± 0.49 %
"c1ccc2c(c1)cc1ccc3cccc4ccc2c1c34 [B(a)P, benzo(a)pyrene]",P53 protein expression (Western Blot) Induced,"p53 protein; HCC 1.2 cells, background +, mutated p53",+
same,P53 protein expression (Western Blot) Induced,"p53 protein; Hep3B cells, background −",−
same,p53 protein induction (in words),"p53 protein; HepG2, B(a)P treatment for 24 h",induced
same,P53 protein expression (Western Blot) Induced,"p53 protein; HepG2 cells, background +",+++
same,P53 protein expression (Western Blot) Induced,"p53 protein; HepaRG cells, background +",+
same,p53 protein induction (in words),"p53 protein; HuH6, B(a)P treatment for 24 h",induced
same,P53 protein expression (Western Blot) Induced,"p53 protein; HuH6 cells, background +",++
same,P53 protein expression (Western Blot) Induced,"p53 protein; HuH7 cells, background +",+
same,P53 protein expression (Western Blot) Induced,"p53 protein; JHH6 cells, background +",+
same,P53 protein expression (Western Blot) Induced,"p53 protein; PLC/PRF cells, background +",+
same,P53 protein expression (Western Blot) Induced,"p53 protein; SK-Hep1 cells, background +",+
same,P53 protein expression (Western Blot) Induced,"p53 protein; SNU-398 cells, background +, mutated p53",+
same,P53 protein expression (Western Blot) Induced,"p53 protein; SNU-449 cells, background +",+
same,P53 protein expression (Western Blot) Induced,"p53 protein; WRL68 cells, background +",+
same,DNA migration in comet assay,"[1]; primary liver cells, 50 µM, 3 h, statistically not analyzed, ref Monteith and Vanstone [1995]",increase of DNA migration
same,Sensitivity of primary hepatocytes compared with HepG2,[1]; ref Wilkening et al. [2003],no difference
same,P53 gene expression (RT-qPCR) Induced,"p53 gene; HCC 1.2 cells, background 1",1.50 ± 0.33
same,P53 gene expression (RT-qPCR) Induced,"p53 gene; Hep3B cells, background 0",0
same,P53 gene expression (RT-qPCR) Induced,"p53 gene; HepG2 cells, background 1",1.48 ± 0.18
same,P53 gene expression (RT-qPCR) Induced,"p53 gene; HepaRG cells, background 1",0.87 ± 0.14
same,P53 gene expression (RT-qPCR) Induced,"p53 gene; HuH6 cells, background 1",1.26 ± 0.01
same,P53 gene expression (RT-qPCR) Induced,"p53 gene; HuH7 cells, background 1",1.13 ± 0.01
same,P53 gene expression (RT-qPCR) Induced,"p53 gene; JHH6 cells, background 1",1.00 ± 0.03
same,P53 gene expression (RT-qPCR) Induced,"p53 gene; PLC/PRF cells, background 1",0.89 ± 0.05
same,P53 gene expression (RT-qPCR) Induced,"p53 gene; SK-Hep1 cells, background 1",1.04 ± 0.12
same,P53 gene expression (RT-qPCR) Induced,"p53 gene; SNU-398 cells, background 1",1.03 ± 0.15
same,P53 gene expression (RT-qPCR) Induced,"p53 gene; SNU-449 cells, background 1",0.95 ± 0.03
same,P53 gene expression (RT-qPCR) Induced,"p53 gene; WRL68 cells, background 1",0.96 ± 0.03
CC(=O)Nc1ccc2c(c1)Cc1ccccc1-2 [2-acetylaminofluorene],Result of SCGE experiments (in words),HepaRG cells [4],negative results
"OO [H2O2, hydrogen peroxide]",Sensitivity towards H2O2-induced DNA damage,HepaRG cells [2],by far less sensitive
"Cc1ccc(N)cc1N [2,4-diaminotoluene]",Result of SCGE experiments (in words),HepaRG cells [4],negative results
aflatoxin B1 [AFB1],% DNA in tail,HepaRG cells [2],4.16 ± 1.40 11.6 ± 1.50* 9.67 ± 2.17* 7.5 ± 1.76 %
same,Result of SCGE experiments (in words),HepaRG cells [2],detected
same,% DNA in tail,WRL68 cells,3.14 ± 1.66 2.32 ± 0.89 1.98 ± 0.41 1.72 ± 0.78%
same,% DNA in tail,HuH7 cells,6.29 ± 1.57 2.76 ± 0.52 3.12 ± 0.70 5.81 ± 4.64%
same,Number of the twelve lines sensitive towards the compound,[3],Seven out of twelve lines
same,% DNA in tail,Hep3B cells,0.93 ± 0.86 1.35 ± 0.81 4.03 ± 1.93* 4.31 ± 0.92 %
same,% DNA in tail,HuH6 cells,1.50 ± 1.09 3.35 ± 2.75 7.20 ± 3.1* 11.9 ± 4.30 %
same,% DNA in tail,SNU-449 cells,2.87 ± 2.05 2.04 ± 2.18 1.14 ± 1.95 3.37 ± 3.14%
same,% DNA in tail,SK-Hep1 cells,0.60 ± 0.41 1.30 ± 0.37 1.13 ± 0.72 1.24 ± 0.88%
same,% DNA in tail,HCC 1.2 cells,1.38 ± 0.48 3.74 ± 2.69 4.02 ± 1.22 8.75 ± 1.48 %
same,% DNA in tail,PLC/PRF cells,1.84 ± 1.44 4.57 ± 1.83 4.77 ± 1.75 6.68 ± 2.94 %
same,% DNA in tail,SNU-398 cells,2.50 ± 1.08 2.53 ± 1.68 3.06 ± 0.28 2.83 ± 0.61%
same,% DNA in tail,HepG2 cells,1.02 ± 0.28 0.85 ± 0.41 2.96 ± 0.66* 5.17 ± 1.57 %
